Laboratory results as given in patent publication US20120259008A1, “METHOD FOR TREATING ASTHENOPIA” (SUCAMPO AG, priority 2011, published 2012).

Assays:
Format in all cases: in vivo, human
[1] = single administration of eye drop to a subject who had blurring of vision; settings: eye drop comprising 0.12%, after single administration, subject with blurring of vision
From the text: A subject who had blurring of vision received eye drop comprising 0.12% isopropyl unoprostone. After single administration of it, eye discharge and blurry vision were improved. On the other hand, after single administration of placebo, eye discharge and blurry vision were not improved.

[2] = single administration of eye drop to a subject who had eye pain; settings: eye drop comprising 0.12%, after single administration, subject with eye pain
From the text: A subject who had eye pain received eye drop comprising 0.12% isopropyl unoprostonen. After single administration of it, eye pain was improved. On the other hand, after single administration of placebo, eye pain was not improved.

[3] = eye drop twice a day for seven days to a subject with presbyopia and astigmatism who was difficult to focus on the objects; settings: eye drop comprising 0.12% twice a day
From the text: A subject who was difficult to focus on the objects even using the farsighted glasses received eye drop comprising 0.12% isopropyl unoprostone twice a day. They were presbyopia and astigmatism.

## CCCCCCCC(=O)CC[C@@H]1[C@@H](C/C=C\CCCC(=O)OC(C)C)[C@@H](O)C[C@H]1O [isopropyl unoprostone, (+)-isopropyl (Z)-7-[(1R,2R,3R,5S)-3,5-dihydroxy-2-(3-oxodecyl)cyclopentyl]hept-5-enoate]
[1]
  blurry vision: improved
  eye discharge: improved
[2]
  eye pain: improved
[3]; after seven days administration, subject with presbyopia and astigmatism
  ability to focus on the objects (accommodative function): able to focus on the objects easier and quicker than before the administration
[3]; seven days administration
  duration of the improvement in focusing: continued for three weeks
